These results are taken from the OPERA property sets (Mansouri et al. 2018).

As a reminder, the melting point is the temperature, or range, at which the solid turns liquid. What is called boiling point is the temperature at which the vapour pressure of the liquid equals the pressure above it.

Conditions in the first data set: not given
For `COc1cc(CCCO)ccc1O`, the melting point turned out to be 65 °C.
On the same count and under the same terms, the result for `CN/C(=N\C#N)NCCSCc1nc[nH]c1C` reads 142 °C; that for `Oc1ccc(Nc2ccc3ccccc3c2)cc1`, 140 °C; that for `C[C@H]1/C(=C\C(=O)OCCN(C)C)CC[C@H]2[C@H]1C(=O)C[C@H]1C(C)(C)[C@@H](O)CC[C@]21C`, 142 °C.
The molecule `Cc1cc(NS(=O)(=O)c2ccc(N)cc2)nc(C)n1` returned a melting point of 243 °C.
`S=C=Nc1ccc(N=C=S)cc1` came in with a melting point of 132 °C.
On the same count and under the same terms, to `O=C[O-].[Na+]` belongs 253 °C.
In the case of `Cc1cc[nH]c(=O)c1`, the boiling point was found to be 308 °C and the melting point came to 130 °C.
`Cc1cccc(CO)c1` displayed a boiling point of 216 °C.
Regarding `OCC(c1ccccc1)c1ccccc1`, the melting point stood at 64.5 °C.
Turning to `CC(=O)OCCC(C)C`, the boiling point is 142 °C, the log10 Henry constant (atm·m³/mol) was -3.23, the log10 Koa was 3.94 and the log10 vapour pressure (mmHg) worked out at 0.748. In addition, the melting point was -78.5 °C.
Turning to `COC(=O)c1cc(C(=O)OC)c(C(=O)OC)cc1C(=O)OC`, the melting point came to 144 °C.
Same read-out and setting: to `C=C[C@@]1(C)CC[C@H]2C(=CC[C@@H]3[C@]2(C)CCC[C@@]3(C)C(=O)O)C1` belongs 160 °C.
In the case of `O=C(O)CCC(=O)O`, the log10 vapour pressure (mmHg) was -6.72, the melting point amounted to 188 °C and the ready biodegradability entry was “readily biodegradable”.
Consider `Brc1cncc2ccccc12`, for which the boiling point stood at 282 °C and the melting point came to 41.5 °C.
In the case of `CC(C)OC(=O)C1(S(=O)(=O)c2ccc(Cl)cc2)CC1`, the melting point amounted to 89.8 °C.
Take `CCNc1nc(NC(C)CC)nc(OC)n1` (centres undefined): the log10 Koc (L/kg) came to 2.78, the log10 vapour pressure (mmHg) is -5.14 and the melting point is 87 °C.
With `CC(=O)OCC(=O)[C@H]1CC[C@H]2[C@@H]3CCC4=CC(=O)CC[C@]4(C)[C@H]3CC[C@]12C`, the melting point was determined as 157 °C.
Consider `C=Cc1ccncc1`, for which the log10 Koc (L/kg) worked out at 1.18, the log10 vapour pressure (mmHg) amounted to 0.23 and the ready biodegradability result is listed as “not readily biodegradable”.
Regarding `COc1ccc(C2C(=O)c3ccccc3C2=O)cc1`, the melting point stood at 156 °C.
As to `O=C(Oc1ccccc1C(=O)O)c1ccccc1O`, the melting point worked out at 147 °C.
On to `CCCCCCC(C)Nc1ccc(Nc2ccccc2)cc1` (centres undefined), for which the ready biodegradability entry is “not readily biodegradable”.
As to `COC(=O)c1cc(C)ccc1O`, the boiling point is 244 °C and the melting point was -1 °C.
Molecule `C[C@]12CC[C@@H]3c4ccc(OC5CCCC5)cc4CC[C@H]3[C@@H]1C[C@@H](O)[C@@H]2O` had a melting point of 99 °C.
Molecule `CCC(C)CC(C)=O` (centres undefined) yielded a boiling point of 144 °C.
For the molecule `CC(C)(C)C(=O)CC(=O)C(F)(F)C(F)(F)C(F)(F)F`, the melting point was found to be 38 °C.
Still for that read-out and setting: to `CCN1C[C@]2(COC)[C@H](O)C[C@H](OC)[C@]34C1[C@H]([C@H](OC)[C@H]23)[C@]1(O)[C@H]2[C@@H](O)[C@](O)(C[C@H]24)[C@@H](OC)[C@@H]1O` belongs 132 °C.
The molecule `COC(=O)C[C@@H](C)C(=O)OC` returned a boiling point of 196 °C.
As for `CC1CCCC1(C)C` (centres undefined), the boiling point amounted to 114 °C and the melting point was -21.6 °C.
Regarding `FC(F)(Cl)CCl`, the boiling point is 46.8 °C, the log10 vapour pressure (mmHg) turned out to be 2.53 and the melting point is -101 °C.
As to `CCCCCCCCCC(C)C=O` (centres undefined), the boiling point is 171 °C.
`Cc1ccc2[nH]cnc2c1` registered a melting point of 116 °C.
The same measure, in the same setting: the result for `CC(c1ccccc1)(c1ccccc1)c1ccccc1` reads 95 °C; that for `CC(=O)Oc1ccc2c(c1)CC[C@@H]1[C@@H]2CC[C@]2(C)C(=O)[C@H](OC(C)=O)C[C@@H]12`, 180 °C.
For the molecule `CCCC(=O)OCC`, the boiling point was 122 °C, the log10 Koa amounted to 3.56, the log10 vapour pressure (mmHg) was determined as 1.11 and the melting point was -98 °C.
The molecule `C1CCC2NC2C1` (centres undefined) yielded a boiling point of 150 °C and a melting point of 21 °C.
For the molecule `CCCCC/C=C\C/C=C\C/C=C\C/C=C\CCCC(=O)O`, the melting point is -49.5 °C.
In turn, `FC(Cl)C(Cl)Cl` (centres undefined) yielded a boiling point of 102 °C.
Regarding `CC(=O)N(C)c1ccccc1C`, the boiling point worked out at 260 °C and the melting point was 55.5 °C.
As for `N[C@@H](CCC(=O)O)C(=O)O`, the log10 vapour pressure (mmHg) is -7.77 and the ready biodegradability result is “readily biodegradable”.
In the case of `CN(C)c1ccc(C(=O)c2ccc(N(C)C)cc2)cc1`, the log10 Koc (L/kg) turned out to be 2.21, the melting point amounted to 179 °C and the ready biodegradability entry is reported as “not readily biodegradable”.
As for `N#CC1CCCCC1`, the melting point stood at 11 °C.
Consider `C[Si](C)(C)Oc1ccccc1`, for which the boiling point was 119 °C and the melting point was -55 °C.
For `CCC(C)C(C)(C)CC` (centres undefined), the boiling point is 140 °C, the log10 vapour pressure (mmHg) was 0.948 and the melting point was -101 °C.
Turning to `CCN(C(=O)n1nnn(-c2ccccc2Cl)c1=O)C1CCCCC1`, the log10 vapour pressure (mmHg) is -9.43 and the melting point came out at 79 °C.
Consider `COc1ccc(-c2cc(=O)c3c(O)cc(O)cc3o2)cc1O`, for which the melting point worked out at 254 °C.
Take `COc1ccc(N)cc1Cl`: the log10 Koc (L/kg) was 1.93 and the melting point was 52.5 °C.
In the case of `CCc1cccc(C)c1N(COC(C)C)C(=O)CCl`, the log10 vapour pressure (mmHg) was -4.52 and the melting point amounted to 21.6 °C.
The molecule `CNC(=O)COc1ccccc1OCC(O)CNC(C)(C)C` (centres undefined) displayed a melting point of 96.5 °C.
`C=CCCC(C)O` (centres undefined) showed a boiling point of 139 °C.
`C[C@]1(C(=O)O)CCC[C@]2(C)c3cc(O)ccc3CC[C@@H]12` had a melting point of 194 °C.

The data set is the same for the next values; noted with them: fish.
`c1ccc2c(c1)Nc1ccccc1S2` gave a log10 BCF of 2.55 and a log10 biotransformation half-life (days) of 0.04.
In the case of `CC(=O)N(C)c1ccccc1`, the log10 BCF stood at 0.18 and the log10 biotransformation half-life (days) was -1.12.
As to `C=C[C@@]1(C)CC[C@H]2C(=CC[C@@H]3[C@]2(C)CCC[C@@]3(C)C(=O)O)C1`, the log10 BCF came to 1.63.
Consider `C=Cc1ccncc1`, for which the log10 BCF is 1.86.
Regarding `CN(C)c1ccc(C(=O)c2ccc(N(C)C)cc2)cc1`, the log10 BCF amounted to 1.45 and the log10 biotransformation half-life (days) was -0.77.
